Data reported in US20240368209A1, “GEMCITABINE ANTICANCER DERIVATIVE AND ANTICANCER PHARMACEUTICAL USE” (ASCENTAWITS PHARMACEUTICALS, LTD., priority 2021, published 2024).

Assay: Metabolic stability in dog liver microsomes
Format: in vitro ADME
Description: Main solutions were prepared according to Table 9 below:
(II) Two Separate Experiments were Performed • a) With cofactor (NADPH): 25 μL of 10 mM NADPH was added to the culture broth. The final concentration of liver microsomes was 0.5 mg/mL, and the final concentration of NADPH was 1 mM. • b) Without cofactor (NADPH): 25 μL of 100 mM phosphate buffer was added. The final concentration of liver microsomes was 0.5 mg/mL. The mixture was preheated at 37° C. for 10 minutes. (III) 25 μL of […] control compound or test compound solution was added to start the reaction. […] The final concentrations of the test compound and control compound were both 1 μM. The culture broth was cultured in water at 37° C. (IV) Aliquots of 30 μL were collected from the reaction solution at 0.5, 5, 15, 30, and 60 minutes, respectively. 5 volumes of cold acetonitrile and IS (internal standard, containing 100 nM of alprazolam, 200 nM of caffeine, and 100 nM of tolylbutanamide) were added to stop the reaction. […] 100 μL of supernatant was taken and mixed with 100 μL of ultrapure water, equally divided and analyzed with LC-MS/MS.
All calculations were conducted using Microsoft Excel. The peak area was determined from the extracted ion chromatogram.
[formula] [formula] [formula] • wherein, QH is the hepatic blood flow (mL/min/kg) in Table 10, and fub is the fraction of drug unbound in plasma, and assumed as 1.

## CC(C)NP(=O)(OCc1ccc([N+](=O)[O-])c(Oc2ccc(-c3ccc(F)cc3)c(F)c2)c1)OCC1OC(C2N=CC(N)=NC2=O)C(F)(F)C1O (stereo not shown) [Compound H11]
  Hepatic Extraction Ratio (ER): 0.68
  Predicted Hepatic CLH: 21.21 mL/min/kg
  clearance and stability in liver microsomes (in words): medium clearances and certain stability
NADPH added, 0.5 minutes, 1 μM
  Remaining percentage (%): 100.00%
NADPH added, 5 minutes
  Remaining percentage (%): 90.20%
NADPH added, 15 minutes
  Remaining percentage (%): 71.99%
NADPH added, 30 minutes
  Remaining percentage (%): 52.53%
NADPH added, 60 minutes
  Remaining percentage (%): 32.12%
NADPH not added, 0.5 minutes
  Remaining percentage (%): 100.00%
NADPH not added, 60 minutes
  Remaining percentage (%): 92.14%
dog, read-out: In vitro half-life t1/2
  half-life at 1 μM: 36.3 min
dog, read-out: In vitro intrinsic clearance CLint
  microsomal CLint at 1 μM: 38.2 µL/min/mg
read-out: Scale-up CLint
  CLint scaled at 1 μM: 67.2 mL/min/kg
